US7550456B2, “Substituted aryl cycloalkanoyl derivatives and methods of their use” (Wyeth, priority 2003, dated 2009)
Structures can show the parent of a compound that is named as a salt.

biological target: T1, human hNET (Homo sapiens, UniProt P23975); assay: Norepinephrine (NE) uptake assay in MDCK-Net6 cells; format: cell-based; conditions: 1 μM test compound, [3H]NE uptake, read-out: % Inhibition @ 1 μM (hNET)
T1 construct: expressed in transfected cells; host or cells: MDCK-Net6 (MDCK cells, stably transfected)
T1 sequence (P23975 whole entry): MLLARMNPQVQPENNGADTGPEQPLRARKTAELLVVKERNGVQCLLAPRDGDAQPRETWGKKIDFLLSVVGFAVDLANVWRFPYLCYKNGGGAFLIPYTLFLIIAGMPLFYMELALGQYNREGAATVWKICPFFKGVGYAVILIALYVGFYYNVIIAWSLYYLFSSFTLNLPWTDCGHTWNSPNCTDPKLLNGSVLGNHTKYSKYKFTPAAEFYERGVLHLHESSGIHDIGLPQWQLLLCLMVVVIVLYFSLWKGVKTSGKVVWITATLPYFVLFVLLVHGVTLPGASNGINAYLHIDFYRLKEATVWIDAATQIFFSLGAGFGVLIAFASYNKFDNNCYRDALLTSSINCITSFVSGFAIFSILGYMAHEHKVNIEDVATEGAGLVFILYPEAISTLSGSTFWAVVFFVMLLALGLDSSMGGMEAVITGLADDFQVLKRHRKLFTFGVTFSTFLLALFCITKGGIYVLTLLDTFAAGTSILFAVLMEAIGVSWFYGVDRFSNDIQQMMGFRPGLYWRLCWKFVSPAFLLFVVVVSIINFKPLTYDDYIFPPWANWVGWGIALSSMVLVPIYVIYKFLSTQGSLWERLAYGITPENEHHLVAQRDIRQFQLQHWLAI
Outline: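 Radiolabelled NE uptake was counted by scintillation after NaOH lysis, with 1 µM desipramine defining non-specific uptake. EC50 came from a logistic dose-response fit.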

| SMILES | inhibition at 1 µM |
| --- | --- |
| Oc1ccc(C(CN2CCNCC2)C2(O)CCCCC2)cc1OC(F)(F)F (stereo not drawn) [Example 400, 4-[1-(1-hydroxycyclohexyl)-2-piperazin-1-ylethyl]-2-(trifluoromethoxy)phenol dihydrochloride] | 38% |
| OC1(C(CN2CCNCC2)c2cccc(-c3cccc(Cl)c3)c2)CCCCC1 (stereo not drawn) [Example 139, 1-[1-(3′-chloro-1,1′-biphenyl-3-yl)-2-piperazin-1-ylethyl]cyclohexanol dihydrochloride] | 45% |
| COc1ccc(C(CN2CCNCC2)C2(O)CCCCC2)cc1-c1ccccc1 (stereo not drawn) [Example 254, 1-[1-(6-methoxy-1,1′-biphenyl-3-yl)-2-piperazin-1-ylethyl]cyclohexanol dihydrochloride] | 29% |
| C#Cc1cccc(C(CN2CCN(C)CC2)C2(O)CCCCC2)c1 (stereo not drawn) [Example 299, 1-[1-(3-ethynylphenyl)-2-(4-methylpiperazin-1-yl)ethyl]cyclohexanol dihydrochloride] | 95% |
| C[C@@H]1CN(CC(c2ccc(OC(F)(F)F)cc2)C2(O)CCCCC2)C[C@H](C)N1 (stereo partly drawn) [Example 288, 1-{2-[cis-3,5-dimethylpiperazin-1-yl]-1-[4(trifluoromethoxy)phenyl]ethyl}cyclohexanol dihydrochloride] | 77.6% |
| OC1(C(CN2CCNCC2)c2ccc(-c3ccc(Cl)c(Cl)c3)cc2)CCCCC1 (stereo not drawn) [Example 173, 1-[1-(3′,4′-dichloro-1,1′-biphenyl-4-yl)-2-piperazin-1-ylethyl]cyclohexanol dihydrochloride] | 35% |
| COc1cc(C(CN2CCN(C)CC2)C2(O)CCCCC2)ccc1OCc1ccccc1 (stereo not drawn) [Example 443, 1-[1-[4-(benzyloxy)-3-methoxyphenyl]-2-(4-methylpiperazin-1-yl)ethyl]cyclohexanol dihydrochloride] | 90% |
| CC#Cc1cccc(C(CN2CCN(C)CC2)C2(O)CCCCC2)c1 (stereo not drawn) [Example 301, 1-[2-(4-methylpiperazin-1-yl)-1-(3-prop-1-ynylphenyl)ethyl]cyclohexanol dihydrochloride] | 23% |
| COc1cccc(-c2cccc(C(CN3CCNCC3)C3(O)CCCCC3)c2)c1 (stereo not drawn) [Example 138, 1-[1-(3′-methoxy-1,1′-biphenyl-3-yl)-2-piperazin-1-ylethyl]cyclohexanol dihydrochloride] | 44% |
| CN1CCN(C[C@@H](c2ccc(OCc3ccccc3)c(Cl)c2)C2(O)CCCCC2)CC1 [Example 325, 1-[(1R)-1-[4-(benzyloxy)-3-chlorophenyl]-2-(4-methylpiperazin-1-yl)ethyl]cyclohexanol dihydrochloride] | 93.9% |
| CCN1CCN(CC(c2ccc(OC(F)(F)F)cc2)C2(O)CCCCC2)CC1 (stereo not drawn) [Example 287, 1-{2-(4-ethylpiperazin-1-yl)-1-[4-(trifluoromethoxy)phenyl]ethyl}cyclohexanol dihydrochloride] | 60.8% |
| CN1CCN(CC(c2ccc(-c3cc(Cl)cc(Cl)c3)cc2)C2(O)CCC2)CC1 (stereo not drawn) [Example 297, 1-[1-(3′,5′-dichloro-1,1′-biphenyl-4-yl)-2-(4-methylpiperazin-1-yl)ethyl]cyclobutanol dihydrochloride] | 4% |
| OC1(C(CN2CCNCC2)c2ccc(-c3cccc(OC(F)(F)F)c3)cc2)CCCCC1 (stereo not drawn) [Example 171, 1-{2-piperazin-1-yl-1-[3′-(trifluoromethoxy)-1,1′-biphenyl-4-yl]ethyl}cyclohexanol dihydrochloride] | 32% |
| C[C@@H](Oc1ccc(C(CN2CCN(C)CC2)C2(O)CCCCC2)cc1)c1ccccc1 (stereo partly drawn) [Example 469, 1-(2-(4-methylpiperazin-1-yl)-1-{4-[(1R)-1-phenylethoxy]phenyl}ethyl)cyclohexanol dihydrochloride] | 12% |
| CN1CCN(CC(c2ccc(OCc3ccccc3)c(C(F)(F)F)c2)C2(O)CCCCC2)CC1 (stereo not drawn) [Example 264, 1-[1-[4-(benzyloxy)-3-(trifluoromethyl)phenyl]-2-(4-methylpiperazin-1-yl)ethyl]cyclohexanol dihydrochloride] | 89% |
| OC1(C(CN2CCNCC2)c2ccc(-c3cccc(Cl)c3)cc2)CCCCC1 (stereo not drawn) [Example 167, 1-[1-(3′-chloro-1,1′-biphenyl-4-yl)-2-piperazin-1-ylethyl]cyclohexanol dihydrochloride] | 25% |
| CN1CCN(CC(c2cccc(OCc3ccccc3)c2)C2(O)CCCCC2)CC1 (stereo not drawn) [Example 108, 1-[1-[3-(benzyloxy)phenyl]-2-(4-methylpiperazin-1-yl)ethyl]cyclohexanol dihydrochloride] | 0% |

| SMILES | inhibition at 1 µM |
| --- | --- |
| C[C@@H](c1ccccc1)N1CCN(C[C@H](c2cccc(OC(F)(F)F)c2)C2(O)CCCCC2)CC1 [Example 363, 1-{(1S)-2-{4-[(1S)-1-phenylethyl]piperazin-1-yl}-1-[3-(trifluoromethoxy)phenyl]ethyl}cyclohexanol dihydrochloride] | 42% |
| OC1(C(CN2CCNCC2)c2ccc(OC(F)(F)F)cc2)CCCCC1 (stereo not drawn) [Example 28, 1-{2-piperazin-1-yl-1-[4-(trifluoromethoxy)phenyl]ethyl}cyclohexanol dihydrochloride] | 80% |
| OC1(C(CN2CCNCC2)c2ccccc2-c2cccc(Cl)c2)CCCCC1 (stereo not drawn) [Example 150, 1-[1-(3′-chloro-1,1′-biphenyl-2-yl)-2-piperazin-1-ylethyl]cyclohexanol dihydrochloride] | 18% |
| CN1CCN(CC(c2cccc(-c3ccc(Cl)c(Cl)c3)c2)C2(O)CCCCC2)CC1 (stereo not drawn) [Example 247, 1-[1-(3′,4′-dichloro-1,1′-biphenyl-3-yl)-2-(4-methylpiperazin-1-yl)ethyl]cyclohexanol dihydrochloride] | 49% |
| CC(C)N1CCN(CC(c2cccc(OC(F)(F)F)c2)C2(O)CCCCC2)CC1 (stereo not drawn) [Example 362, 1-{2-(4-isopropylpiperazin-1-yl)-1-[3-(trifluoromethoxy)phenyl]ethyl}cyclohexanol dihydrochloride] | 51% |
| OC1(C(CN2CCNCC2)c2ccc(-c3ccc(Cl)c(Cl)c3)cc2)CCC1 (stereo not drawn) [Example 184, 1-[1-(3′,4′-dichloro-1,1′-biphenyl-4-yl)-2-piperazin-1-ylethyl]cyclobutanol dihydrochloride] | 40% |
| OC1(C(CN2CCNCC2)c2cccc(OCc3ccccc3)c2)CCCCC1 (stereo not drawn) [Example 104, 1-{1-[3-(benzyloxy)phenyl]-2-piperazin-1-ylethyl}cyclohexanol dihydrochloride] | 3% |
| CC(C)(CO)N1CCN(CC(c2cccc(OC(F)(F)F)c2)C2(O)CCCCC2)CC1 (stereo not drawn) [Example 373, 1-{2-[4-(2-hydroxy-1,1-dimethylethyl)piperazin-1-yl]-1-[3-(trifluoromethoxy)phenyl]ethyl}cyclohexanol dihydrochloride] | 90% |
| OC1(C(CN2CCNCC2)c2ccc(OCc3ccccc3C(F)(F)F)c(Cl)c2)CCCCC1 (stereo not drawn) [Example 421, 1-[1-(3-chloro-4-{[2-(trifluoromethyl)benzyl]oxy}phenyl)-2-piperazin-1-ylethyl]cyclohexanol dihydrochloride] | 59% |
| CC[C@@H]1CN(C[C@H](c2cccc(OC(F)(F)F)c2)C2(O)CCCCC2)CCN1C [Example 352, 1-{(1S)-2-[(3R)-3-ethyl-4-methylpiperazin-1-yl]-1-[3-(trifluoromethoxy)phenyl]ethyl}cyclohexanol dihydrochloride] | 68% |
| COc1cc(C(CN2CCN(C)CC2)C2(O)CCCCC2)cc(Br)c1OCc1ccccc1 (stereo not drawn) [Example 391, 1-[1-[4-(benzyloxy)-3-bromo-5-methoxyphenyl]-2-(4-methylpiperazin-1-yl)ethyl]cyclohexanol dihydrochloride] | 30% |
| COc1ccccc1COc1ccc(C(CN2CCNCC2)C2(O)CCCCC2)cc1Cl (stereo not drawn) [Example 456, 1-(1-{3-chloro-4-[(2-methoxybenzyl)oxy]phenyl}-2-piperazin-1-ylethyl)cyclohexanol dihydrochloride] | 90% |
| OC1(C(CN2CCNCC2)c2cccc(-c3ccc(Cl)cc3)c2)CCCCC1 (stereo not drawn) [Example 137, 1-[1-(4′-chloro-1,1′-biphenyl-3-yl)-2-piperazin-1-ylethyl]cyclohexanol dihydrochloride] | 41% |
| COc1ccc(C(CN2CCNCC2)C2(O)CCCCC2)cc1-c1cccc(OC(F)(F)F)c1 (stereo not drawn) [Example 251, 1-{1-[6-methoxy-3′-(trifluoromethoxy)-1,1′-biphenyl-3-yl]-2-piperazin-1-ylethyl}cyclohexanol dihydrochloride] | 47% |
| C[C@@H]1CCC(O)(C(CN2CCNCC2)c2cccc(OC(F)(F)F)c2)C1 (stereo partly drawn) [Example 394, (3R)-3-methyl-1-{2-piperazin-1-yl-1-[3-(trifluoromethoxy)phenyl]ethyl}cyclopentanol dihydrochloride] | 35% |
| COc1cc(C(CN2CCNCC2)C2(O)CCCCC2)cc(Br)c1OCc1ccccc1 (stereo not drawn) [Example 390, 1-{1-[4-(benzyloxy)-3-bromo-5-methoxyphenyl]-2-piperazin-1-ylethyl}cyclohexanol dihydrochloride] | 6% |

same assay, conditions: 10 μM test compound (stated in the cell), [3H]NE uptake

| SMILES | inhibition at 10 µM |
| --- | --- |
| CN1CCN(CC(c2ccc(-c3cccc(OC(F)(F)F)c3)cc2)C2(O)CCC2)CC1 (stereo not drawn) [Example 295, 1-{2-(4-methylpiperazin-1-yl)-1-[3′-(trifluoromethoxy)-1,1′-biphenyl-4-yl]ethyl}cyclobutanol dihydrochloride] | 2% |
| COc1ccc(C(CN2CCN(C)CC2)C2(O)CCCCC2)cc1-c1ccc(Cl)c(Cl)c1 (stereo not drawn) [Example 255, 1-[1-(3′,4′-dichloro-6-methoxy-1,1′-biphenyl-3-yl)-2-(4-methylpiperazin-1-yl)ethyl]cyclohexanol dihydrochloride] | 70.7% |
| CN1CCN(CC(c2ccc(-c3cccc(Cl)c3)cc2)C2(O)CCC2)CC1 (stereo not drawn) [Example 294, 1-[1-(3′-chloro-1,1′-biphenyl-4-yl)-2-(4-methylpiperazin-1-yl)ethyl]cyclobutanol dihydrochloride] | 27.2% |
